These results are taken from patent US7091220B2, “Substituted indole Mannich bases” (Gruenenthal GmbH, priority 1999, dated 2006).

Each structure is given as a SMILES string.

One test relates to α2-subtype of the human α-adrenergic receptor. Kind of test: SPA test, affinity for the α2-subtype of the human α-adrenergic receptor. It is filed as binding.
Details: not given
The protocol: Wide-ranging testing of the indole Mannich bases according to the invention for their activity was carried out by the conventional high throughput screening methods, such as are described in John P. Devlin, High Throughput Screening, 1997, Marcel Dekker Inc. They are introduced here as a reference and are therefore part of the disclosure.
The action of the indole Mannich bases according to the invention is determined in particular by the affinity for the N-methyl-D-aspartate (NMDA) receptor family, for (α-adrenergic receptors and opioid receptors.
The compounds of the general formula 1 according to the invention investigated are suitable as ligands for the α2-subtype of the human α-adrenergic receptor, which is of importance for pain sensation.
The affinity of the compounds according to the invention for this α2-subtype of the α-adrenergic receptor has been determined with the aid of the SPA test such as is described in John P. Devlin, High Throughput Screening, Marcel Dekker Inc. 1997, pages 307 to 316. This literature is introduced herewith as a reference and is therefore part of the disclosure. The affinities of the compounds according to the invention were in each case determined at a concentration of 10 μM.
As for `CN(C)C(c1cc(Br)ccc1F)c1c[nH]c2cccc([N+](=O)[O-])c12` (stereo not drawn) [Example 51, [(5-Bromo-2-fluoro-phenyl)-(4-nitro-1H-indol-3-yl)-methyl]-dimethyl-amine], the “% Inhibition of α2 (humans), 10 μM” value is given as 43%. With `CCn1c(-c2ccccc2)c(C(c2c(F)cccc2Cl)N(C)C)c2ccccc21` (stereo not drawn) [Example 54, [(2-Chloro-6-fluoro-phenyl)-(1-ethyl-2-phenyl-1H-indol-3-yl)-methyl]-dimethylamine], the “% Inhibition of α2 (humans), 10 μM” value came to 55%. With `CCn1c(-c2ccccc2)c(C(c2ccc(C(C)(C)C)cc2)N(C)C)c2ccccc21` (stereo not drawn) [Example 62, [(4-tert-Butyl-phenyl)-(1-ethyl-2-phenyl-1H-indol-3-yl)-methyl]-dimethyl-amine], the “% Inhibition of α2 (humans), 10 μM” value is 51%. On the same count and under the same terms, the value for `CN(C)C(c1ccccc1Br)c1c[nH]c2cccc([N+](=O)[O-])c12` (stereo not drawn) [Example 57, [(2-Bromo-phenyl)-(4-nitro-1H-indol-3-yl)-methyl]-dimethyl-amine] was 64%; that for `CN(C)C(c1c(F)cccc1Cl)c1c[nH]c2cccc([N+](=O)[O-])c12` (stereo not drawn) [Example 55, [(2-Chloro-6-fluoro-phenyl)-(4-nitro-1H-indol-3-yl)-methyl]-dimethyl-amine] was 49%. Regarding `CN(C)C(c1ccc(C(C)(C)C)cc1)c1cn(C)c2ccccc12` (stereo not drawn) [Example 63, [(4-tert-Butyl-phenyl)-(1-methyl-1H-indol-3-yl)-methyl]-dimethyl-amine], the “% Inhibition of α2 (humans), 10 μM” value stood at 60%.

The next test has as its system phenylquinone-induced writhing in mice. In words: Analgesia test: phenylquinone-induced writhing in mice. It is filed as in vivo. The following applies: male NMRI mice; standard dose 10 mg/kg intravenous, 10 minutes before phenylquinone intraperitoneally; counted 5–20 minutes. The protocol:
The in-depth investigation of the compounds according to the invention for their analgesic activity was carried out in the phenylquinone-induced writhing in mice (modified by I. C. Hendershot, J. Forsaith, J. Pharmacol. Exp. Ther. 125, 237–240 (1959)). Male NMRI mice weighing 25–30 g were used for this. Groups of 10 animals per substance dose received 0.3 ml/mouse of a 0.02% aqueous solution of phenylquinone (phenylbenzoquinone, Sigma, Deisenhofen; preparation of the solution with the addition of 5% ethanol and storage in a water bath at 45° C.) administered intraperitoneally 10 minutes after intravenous administration of the test substances. The animals were placed individually in observation cages. The number of pain-induced stretching movements (so-called writhing reactions=straightening of the body with stretching of the hind extremities) were counted by means of a push-button counter for 5–20 minutes after the administration of phenylquinone. Animals which received only physiological saline solution were also run as a control.
The substances were tested in the standard dose of 10 mg/kg. The inhibition of the writhing reactions by a substance was calculated according to the following equation: […]
The in-depth investigation of the compounds according to the invention for their analgesic activity was carried out in the phenylquinone-induced writhing in mice as described above.
For orientation: Writhing tests count abdominal constrictions after an irritant is injected.
For the compound `CN(C)C(c1ccccc1)c1c[nH]c2ccccc12` (stereo not drawn) [Example 46, [(1H-Indol-3-yl)-phenylmethyl]-dimethylamine], the “Inhibition of the writhing reaction in %” value was determined as 41%. For the compound `Cn1cc(C(c2ccccc2)N2CCCCC2)c2ccccc21` (stereo not drawn) [Example 48, 1-Methyl-3-(phenylpiperidin-1-yl-methyl)-1H-indole], the “Inhibition of the writhing reaction in %” value amounted to 6%. As to `Cn1cc(C(c2ccccc2)N2CCOCC2)c2ccccc21` (stereo not drawn) [Example 23, 1-Methyl-3-(morpholin-4-yl-phenylmethyl)-1H-indole], the “Inhibition of the writhing reaction in %” value is 75%. The same measure, in the same setting: with `CN(C)C(c1ccccc1)c1cn(C)c2ccccc12` (stereo not drawn) [Example 22, Dimethyl-[(1-methyl-1H-indol-3-yl)-phenylmethyl]-amine] the figure was 39%. As for `c1ccc(C(c2c[nH]c3ccccc23)N2CCCCC2)cc1` (stereo not drawn) [Example 49, 3-(Phenylpiperidin-1-yl-methyl)-1H-indole], the “Inhibition of the writhing reaction in %” value is recorded as 82%. With `c1ccc(C(c2c[nH]c3ccccc23)N2CCCC2)cc1` (stereo not drawn) [Example 47, 3-(Phenylpyrrolidin-1-yl-methyl)-1H-indole], the “Inhibition of the writhing reaction in %” value is 57%.
